Measurements: publication PMC13422867, “An orally available PfPKG inhibitor blocks Plasmodium’s infection of the liver” (PLOS Pathogens, 2026)

Tests used:
PfPKG = PfPKG (Plasmodium falciparum, UniProt Q8I719); test: PfPKG enzyme inhibition; format: biochemical; conditions: for IC50: Table 7, spread in parentheses not defined
CIT = biological target: T1, CIT (Homo sapiens, UniProt O14578); test: KdElect binding affinity assay
T1 construct: purchased Eurofins (DiscoverX)
Procedure: Off-target kinase inhibition was assessed using the DiscoverX scanMAX (Eurofins) panel at 1 µM compound concentration. Binding affinities of CIT, ROCK1 and ROCK2 were evaluated using the KdElect assay (Eurofins).

[1] = Cellular cytotoxicity, hepatocyte nuclear counts; format: cell-based, simian; conditions: simian, primary cryopreserved simian hepatocytes (lot OQB); cellular cytotoxicity
Source text: (§1) Primary cryopreserved hepatocytes were selected based on host-parasite compatibility: primary simian hepatocytes (lot OQB) for P. cynomolgi and human hepatocytes (lot BGW) for P. falciparum (BioIVT Inc., Baltimore, MD, USA). Cells were thawed according to the manufacturer’s protocol and seeded into 384-well collagen-coated assay plates (Greiner Bio-One, Monroe, NC, USA) using InVitroGro CP plating medium (BioIVT). Seeding densities were optimized for uniform monolayer formation, and hepatocytes were allowed to adhere for 24–48 hours before infection. Sporozoites were added at a 1:1.1 hepatocyte-to-sporozoite ratio within 48 hours post-seeding. Automated robotic systems were used for media changes and compound additions to ensure assay consistency and minimize variability associated with manual pipetting.
(§2) Test compounds (PfPKG inhibitors) and assay drug controls (KDU-691 and tafenoquine) were solubilized in DMSO or PBS and serially diluted into 8- or 12-point, 2- or 3-fold series, achieving final assay concentrations ranging from 20 µM to 0.019 µM. Compounds were introduced using a calibrated pin tool controlled by robotic arms (V&P Scientific), ensuring a 1:1000 dilution into assay wells. Media were replenished daily with fresh drug-containing HCM. Compounds were added 1-hour post-infection (p.i.) (day 0) and administered daily for 3 days. Cells were fixed on day 6 p.i. of P. falciparum culture and day 8 for P. cynomolgi infected culture, coinciding with liver stage schizont maturation.
High-content imaging was performed using the Operetta CLS system (Revvity) and image analysis was performed with Harmony software version 4.9 (Revvity, Waltham, MA, USA). Images were acquired at 10x or 20x magnification using DAPI and TRITC fluorescence channels. Following the established protocol, parasites were classified as hypnozoites or schizonts based on fluorescence intensity (mean and maximum), morphological features (cell roundness and size), and segmentation criteria. Hepatocyte nuclei were identified using Hoechst 33342 staining. Background signal was captured in uninfected, stained wells and subjected to the same parasite detection algorithm. Estimate erroneous parasite counts were then subtracted from infected well counts. Hepatocyte viability was determined by quantifying nuclear counts per well using Hoechst stain intensity thresholds. […] An in-house built Python-based image analysis script identified parasite objects using predefined fluorescence intensity thresholds. […] Parasite size was quantified by calculating the average object area (µm²) of validated parasite structures per well. […] Dose-response inhibition and IC50 were calculated relative to in-plate negative controls (DMSO-treated wells). […]

P. cynomolgi schizont = test: Schizont formation in primary simian hepatocytes, high-content imaging; format: cell-based, Plasmodium cynomolgi; conditions: Plasmodium cynomolgi, Hepatocyte
Procedure: (§3) Liver stage antimalarial activity was evaluated using sporozoites from P. falciparum (NF54 strain) and P. cynomolgi bastianellii (B strain). P. falciparum-infected Anopheles stephensi mosquitoes were reared at WRAIR, while P. cynomolgi-infected Anopheles dirus mosquitoes were obtained from the Armed Forces Research Institute of Medical Sciences (AFRIMS), Thailand. Sporozoites were isolated by dissecting salivary glands under sterile conditions, followed by gentle mechanical disruption. Freshly isolated sporozoites were immediately used for hepatocyte infection.
as §1
as §2, with “Compounds were added 1-hour post-infection (p.i.) (day 0) and administered daily for 3 days. Cells were fixed on day 6 p.i. of P. falciparum culture and day 8 for P. cynomolgi infected culture, coinciding with liver stage schizont maturation.” left out
(§4) Cells were fixed using 4% paraformaldehyde for 20 minutes at room temperature, followed by three PBS washes, and stored at 4°C until further processing. Parasite detection was performed using species-specific primary antibodies, with P. cynomolgi parasites labeled using a mouse monoclonal anti-Plasmodium GAPDH antibody (1.6 μg/mL, European Malaria Reagent Repository) and P. falciparum parasites detected using a rabbit polyclonal anti-PfHSP70 antibody (1:70 dilution, LS Bio, USA). […]
(§5) High-content imaging was performed using the Operetta CLS system (Revvity) and image analysis was performed with Harmony software version 4.9 (Revvity, Waltham, MA, USA). Images were acquired at 10x or 20x magnification using DAPI and TRITC fluorescence channels. Following the established protocol, parasites were classified as hypnozoites or schizonts based on fluorescence intensity (mean and maximum), morphological features (cell roundness and size), and segmentation criteria. […]

P. cynomolgi hypnozoite = test: Hypnozoite formation in primary simian hepatocytes, high-content imaging; format: cell-based, Plasmodium cynomolgi; conditions: Plasmodium cynomolgi, Hepatocyte
Procedure: as §3, §1
as §2, with “Compounds were added 1-hour post-infection (p.i.) (day 0) and administered daily for 3 days. Cells were fixed on day 6 p.i. of P. falciparum culture and day 8 for P. cynomolgi infected culture, coinciding with liver stage schizont maturation.” left out
as §4, §5

[2] = test system: P. falciparum CamWT and CamC580Y; conditions: ring-stage assays; cited from earlier work
P. falciparum 7G8 = test: Asexual blood stage growth inhibition, SYBR Green I, 72 h; format: cell-based; conditions: Plasmodium falciparum, mean (standard error) of 3 biological replicates
Procedure: (§6) Asexual blood stage P. falciparum strains, including 3D7 and drug-resistant field isolates, were cultured using standard conditions in RPMI 1640 with 0.5% Albumax as described previously. EC₅₀ values were determined using a SYBR Green I fluorescence assay after 72 h of compound exposure. EC50 values were derived by nonlinear regression in GraphPad Prism version 10.

P. falciparum K1 = test: as above; format: cell-based; conditions: Plasmodium falciparum, mean (standard error) of 3 biological replicates
Procedure: as §6

P. falciparum 3D7 = test: as above; format: cell-based; conditions: Plasmodium falciparum, mean (standard error) of 3 biological replicates
Procedure: as §6

P. falciparum TM90_C2B = test: as above; format: cell-based; conditions: Plasmodium falciparum, mean (standard error) of 3 biological replicates
Procedure: as §6

P. falciparum Dd2-B2 = test: as above; format: cell-based; conditions: Plasmodium falciparum, mean (standard error) of 3 biological replicates
Procedure: as §6

[3] = from IC50 ≈ Kd, ∆G = -RTln(Kd), 300K

PfPKG, sequence (Q8I719 whole entry): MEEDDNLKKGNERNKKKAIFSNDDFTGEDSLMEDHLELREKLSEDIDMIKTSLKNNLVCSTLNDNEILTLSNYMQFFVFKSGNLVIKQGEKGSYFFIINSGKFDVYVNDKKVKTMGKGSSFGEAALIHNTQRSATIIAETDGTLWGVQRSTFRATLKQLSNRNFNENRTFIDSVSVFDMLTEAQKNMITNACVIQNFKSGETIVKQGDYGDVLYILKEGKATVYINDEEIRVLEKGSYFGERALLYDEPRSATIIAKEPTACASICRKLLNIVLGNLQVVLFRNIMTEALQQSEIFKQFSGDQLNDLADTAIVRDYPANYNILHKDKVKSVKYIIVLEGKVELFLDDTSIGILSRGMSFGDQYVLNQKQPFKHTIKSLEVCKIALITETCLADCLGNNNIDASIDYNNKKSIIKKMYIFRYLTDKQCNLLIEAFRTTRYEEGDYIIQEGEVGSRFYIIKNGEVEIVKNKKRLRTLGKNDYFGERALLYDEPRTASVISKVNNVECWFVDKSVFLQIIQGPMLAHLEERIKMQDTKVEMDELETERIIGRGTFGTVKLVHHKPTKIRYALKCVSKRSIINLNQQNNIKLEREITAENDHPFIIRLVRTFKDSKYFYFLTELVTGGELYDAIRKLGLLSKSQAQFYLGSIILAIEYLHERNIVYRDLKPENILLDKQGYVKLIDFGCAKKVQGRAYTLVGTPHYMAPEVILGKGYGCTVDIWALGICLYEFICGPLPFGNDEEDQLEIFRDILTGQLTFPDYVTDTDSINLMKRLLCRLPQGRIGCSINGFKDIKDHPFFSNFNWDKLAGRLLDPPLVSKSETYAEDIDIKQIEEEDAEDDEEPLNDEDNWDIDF
T1 sequence (O14578 whole entry): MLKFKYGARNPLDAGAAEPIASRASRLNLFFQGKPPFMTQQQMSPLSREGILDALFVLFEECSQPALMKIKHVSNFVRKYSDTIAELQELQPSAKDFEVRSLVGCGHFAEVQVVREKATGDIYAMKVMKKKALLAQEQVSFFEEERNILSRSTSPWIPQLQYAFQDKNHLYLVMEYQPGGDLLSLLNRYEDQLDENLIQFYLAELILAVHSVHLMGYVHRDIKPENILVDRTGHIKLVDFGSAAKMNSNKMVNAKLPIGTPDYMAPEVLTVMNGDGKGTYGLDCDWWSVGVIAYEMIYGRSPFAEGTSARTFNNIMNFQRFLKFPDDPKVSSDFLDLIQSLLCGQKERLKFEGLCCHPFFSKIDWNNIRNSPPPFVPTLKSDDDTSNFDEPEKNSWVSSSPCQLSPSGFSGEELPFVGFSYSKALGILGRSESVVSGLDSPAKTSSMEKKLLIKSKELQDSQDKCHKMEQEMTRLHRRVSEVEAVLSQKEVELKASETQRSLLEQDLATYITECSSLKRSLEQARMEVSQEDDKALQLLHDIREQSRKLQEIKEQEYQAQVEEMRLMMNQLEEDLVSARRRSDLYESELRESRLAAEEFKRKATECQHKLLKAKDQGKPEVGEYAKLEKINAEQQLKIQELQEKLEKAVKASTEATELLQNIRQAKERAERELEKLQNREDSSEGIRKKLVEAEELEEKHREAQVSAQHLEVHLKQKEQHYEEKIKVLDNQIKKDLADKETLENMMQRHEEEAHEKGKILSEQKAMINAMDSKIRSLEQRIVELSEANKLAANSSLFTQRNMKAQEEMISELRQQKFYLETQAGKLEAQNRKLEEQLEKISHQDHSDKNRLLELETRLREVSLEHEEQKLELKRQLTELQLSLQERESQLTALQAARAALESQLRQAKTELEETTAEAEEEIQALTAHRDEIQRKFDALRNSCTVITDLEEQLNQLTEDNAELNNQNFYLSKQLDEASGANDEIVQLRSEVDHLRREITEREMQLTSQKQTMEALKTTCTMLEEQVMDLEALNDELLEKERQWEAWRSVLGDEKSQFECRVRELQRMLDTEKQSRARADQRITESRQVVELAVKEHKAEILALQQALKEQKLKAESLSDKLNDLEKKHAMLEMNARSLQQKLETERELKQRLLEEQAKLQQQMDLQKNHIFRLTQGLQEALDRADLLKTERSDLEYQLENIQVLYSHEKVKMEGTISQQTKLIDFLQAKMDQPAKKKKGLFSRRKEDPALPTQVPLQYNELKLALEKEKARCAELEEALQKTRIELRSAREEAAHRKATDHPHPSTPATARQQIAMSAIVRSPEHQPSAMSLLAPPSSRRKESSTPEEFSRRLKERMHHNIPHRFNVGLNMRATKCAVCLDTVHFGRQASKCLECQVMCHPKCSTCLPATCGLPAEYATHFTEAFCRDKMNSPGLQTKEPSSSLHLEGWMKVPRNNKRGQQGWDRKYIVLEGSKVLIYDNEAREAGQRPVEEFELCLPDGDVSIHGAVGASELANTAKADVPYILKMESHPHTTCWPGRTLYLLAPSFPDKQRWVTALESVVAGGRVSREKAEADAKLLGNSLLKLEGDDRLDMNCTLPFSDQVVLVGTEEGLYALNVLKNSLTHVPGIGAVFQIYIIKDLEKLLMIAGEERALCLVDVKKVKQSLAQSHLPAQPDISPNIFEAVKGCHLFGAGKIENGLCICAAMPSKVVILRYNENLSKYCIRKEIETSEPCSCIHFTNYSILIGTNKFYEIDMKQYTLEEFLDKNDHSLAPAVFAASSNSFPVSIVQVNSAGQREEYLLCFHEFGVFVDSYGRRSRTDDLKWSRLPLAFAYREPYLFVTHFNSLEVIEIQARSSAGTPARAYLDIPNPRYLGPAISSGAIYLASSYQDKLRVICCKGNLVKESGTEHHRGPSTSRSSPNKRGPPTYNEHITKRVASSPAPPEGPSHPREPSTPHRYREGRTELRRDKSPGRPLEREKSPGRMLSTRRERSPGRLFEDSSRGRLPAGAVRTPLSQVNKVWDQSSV

IC50 (PfPKG) [nM] | Structure (SMILES) | IC50 (P. falciparum 7G8) [nM] | IC50 (P. falciparum K1) [nM] | IC50 (P. falciparum 3D7) [nM] | IC50 (P. falciparum Dd2-B2) [nM] | further results
17.2 | COC(=O)c1cc(-c2[nH]c(C3CCN(C)CC3)cc2-c2ccncc2)ccc1F [RUPB-72, Methyl 2-fluoro-5-(5-(1-methylpiperidin-4-yl)-3-(pyridin-4-yl)-1H-pyrrol-2-yl)benzoate] |  |  |  |  | 
256 | CCC(O)(CC)c1cc(-c2[nH]c(C3CCN(C)CC3)cc2-c2ccncc2)ccc1F [RUPB-73, 3-(2-Fluoro-5-(5-(1-methylpiperidin-4-yl)-3-(pyridin-4-yl)-1H-pyrrol-2-yl)phenyl)pentan-3-ol] |  |  |  |  | 

Continued, molecule first:

Structure (SMILES) | IC50 (PfPKG) [nM] | IC50 (P. falciparum 7G8) [nM] | IC50 (P. falciparum K1) [nM] | IC50 (P. falciparum 3D7) [nM] | IC50 (P. falciparum Dd2-B2) [nM] | further results
CN1CCC(c2cc(-c3ccncc3)c(-c3ccc(F)c(C(C)(C)O)c3)[nH]2)CC1 [RUPB-69, 2-(2-Fluoro-5-(5-(1-methylpiperidin-4-yl)-3-(pyridin-4-yl)-1H-pyrrol-2-yl)phenyl)propan-2-ol] |  |  |  |  |  | improvement in PfPKG IC50 compared to RUPB-61 (PfPKG): 10 fold; PfPKG (ΔG) (PfPKG; [3]): -12.1 kcal/mol; PfPKG Experimental Binding (ΔG) (PfPKG; [3]): -12.1 kcal/mol; Kd for CIT higher compared to RUPB-61 (CIT; range over RUPB-18, -34, -69): 5–125 fold; Kd (CIT; read-out: CIT Experimental Kd): 210 nM
COc1cc(C)c2c(Oc3cccc(C(F)(F)F)c3)c(OC)cc(NC(C)CCCN)c2n1 (centres unmarked) [Tafenoquine, tafenoquine] |  |  |  |  |  | CC50 at 3 days [1]: 3600 nM; IC50 (P. cynomolgi schizont): 41 nM; IC50 (P. cynomolgi hypnozoite): 85 nM
C[C@H]1CN(C)CC[C@H]1c1cc(-c2ccncc2)c(-c2ccc(F)cc2)[nH]1.Cl.Cl [RUPB-58, 4-{5-[(3R,4R)-1,3-Dimethylpiperidin-4-yl]-2-(4-fluorophenyl)-1H-pyrrol-3-yl}pyridine Dihydrochloride] |  | 57 | 239 | 170 | 467 | IC50 against DHA-sensitive CamWT compared with DHA-resistant CamC580Y [2]: similar; IC50 (P. falciparum TM90_C2B): 122 nM
C[C@H]1[C@@H](O)O[C@@H]2O[C@@]3(C)CC[C@H]4[C@H](C)CC[C@@H]1[C@@]24OO3 [DHA, dihydroartemisinin, reference compound] |  | 0.5 | 2 | 2 | 3 | 
